# Reference: patent publication US10881648B2, “Combination therapy including an MDM2 inhibitor and one or more additional pharmaceutically active agents for the treatment of cancers” (AMGEN INC., priority 2013, dated 2021)
# Tested on: A204 cells
# Experiment: Two-way combination growth inhibition, CellTiter-Glo cell viability, 72 h, Loewe additivity analysis
# Format: cell-based
# Conditions: FIG. 1a, compound crossed with itself (A×A, 1×1)
# Description: Cell lines were purchased from American Type Culture Collection (ATCC), German Collection of Microorganisms and Cell Cultures (DSMZ), and Japanese Collection of Research Bioresources (JCRB). Each line was cultured in its recommended growth medium. Cell line A375sq2 was made in accordance with the procedure set forth in J. Med. Chem. 2009, 52, 6189-6192, footnote 13.
# For Examples 1 to 71, cells were seeded into 384-well cell culture plates at initial densities ranging from 300 to 7500 cells per well in a 30 μL volume, depending on the growth rate of the cell line, so that adherent cells would remain at subconfluent densities by the end of the 72-hour treatment period. […] CellTiter-Glo® Luminescent Cell Viability Assay (Promega; Madison, Wis.) was used to determine the number of viable cells based on quantitation of the amount of ATP present, an indicator of metabolically active cells. Luminescence was measured with an EnVision® Multilabel Reader (Perkin Elmer; Waltham, Mass.) for each cell line at time zero (V0) before the addition of compounds, as well as after 72 hours of compound treatment (T72). Growth inhibition (GI) was calculated according to the following equations, where V72 was luminescence of DMSO control at 72 hours and T72 was luminescence of the compound-treated sample: if T72≥V0, then GI=100×(1−((T72−V0)/(V72−V0))); if T72<V0, then […]. […]
structure (smiles),measurement,value
"CC(C)[C@@H](CS(=O)(=O)C(C)C)N1C(=O)[C@@](C)(CC(=O)O)C[C@H](c2cccc(Cl)c2)[C@H]1c1ccc(Cl)cc1 [Compound A, 2-((3R,5R,6S)-5-(3-chlorophenyl)-6-(4-chlorophenyl)-1-((S)-1-(isopropylsulfonyl)-3-methylbutan-2-yl)-3-methyl-2-oxopiperidin-3-yl)acetic acid]",synergy score for the self-cross combination,0.621
